# Reference: patent publication US20250179057A1, “MEK IMMUNE ONCOLOGY INHIBITORS AND THERAPEUTIC USES THEREOF” (Immuneering Corporation, priority 2022, published 2025)
# Structures can show the parent of a compound that is named as a salt.
# Experiments:
# PAMPA (pH 7.4) = format: in vitro ADME; conditions: PAMPA
# Description: Each stock solution was diluted to 50 M in pH 7.4 Prisma HT buffer (pION) and 200 μl was added to each well of the donor plate in triplicate. The polyvinylidene fluoride (PVDF, 0.45 μm) filter membrane on the acceptor plate was coated with 5 μl gastrointestinal tract lipid formulation (GIT-0, pION) and to each well of the acceptor plate, 200 μl of acceptor sink buffer (pION) was added. The acceptor filter plate was then carefully placed on top of the donor plate to form a sandwich. The sandwich was incubated at 25° C. for 4 h without stirring. UV-vis spectra of the solutions in the blank, reference, acceptor and donor plates were measured using a microplate reader (Tecan Infinite 200PRO M Nano Plus). Permeability values were calculated using the PAMPA explorer software v.
# [1] = Hepatocyte stability, cynomolgus monkey; format: in vitro ADME; conditions: 0.5 million cells/ml; for half-life at 2 μM: cynomolgus monkey hepatocytes; for CLint scaled at 2 μM: cynomolgus monkey, hepatocytes
# Description: (§1) In this study, human, cynomolgus monkey, beagle dog, wistar hannover rat, and balb/c mouse hepatocyle stability was determined.
# [2] = Hepatocyte stability, wistar hannover rat; format: in vitro ADME; conditions: 0.5 million cells/ml; for CLint scaled at 2 μM: Wistar Hannover, rat, hepatocytes; for half-life at 2 μM: wistar hannover rat hepatocytes
# Description: as §1
# CYP2B6 = biological target: T1, CYP2B6 (Homo sapiens, UniProt P20813); experiment: in vitro; conditions: microsomes, pH 7.4
# T1 sequence (P20813 1-491): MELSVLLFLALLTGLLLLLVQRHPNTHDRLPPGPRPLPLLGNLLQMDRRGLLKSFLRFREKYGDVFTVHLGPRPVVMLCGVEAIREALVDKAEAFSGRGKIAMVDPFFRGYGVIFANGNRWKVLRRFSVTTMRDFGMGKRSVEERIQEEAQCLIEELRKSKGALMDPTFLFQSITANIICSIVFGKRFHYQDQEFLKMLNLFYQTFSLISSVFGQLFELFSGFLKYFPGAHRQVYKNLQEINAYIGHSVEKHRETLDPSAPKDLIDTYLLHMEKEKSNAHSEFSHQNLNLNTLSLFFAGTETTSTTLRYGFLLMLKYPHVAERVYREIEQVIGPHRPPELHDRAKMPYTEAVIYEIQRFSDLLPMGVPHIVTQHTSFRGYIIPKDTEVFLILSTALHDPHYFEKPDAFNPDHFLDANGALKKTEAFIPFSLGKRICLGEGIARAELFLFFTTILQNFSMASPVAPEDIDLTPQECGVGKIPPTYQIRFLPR
# CYP2C19 = CYP2C19 (Homo sapiens, UniProt P33261); experiment: in vitro; conditions: microsomes, pH 7.4
# CYP2D6 = CYP2D6 (Homo sapiens, UniProt P10635); experiment: in vitro; conditions: microsomes, pH 7.4
# CYP1A2 = biological target: T2, CYP1A2 (Homo sapiens, UniProt P05177); experiment: CYP450 panel inhibition in human liver microsomes, 1A2 (phenacetin); conditions: human, microsomes, pH 7.4
# T2 sequence (P05177 1-516): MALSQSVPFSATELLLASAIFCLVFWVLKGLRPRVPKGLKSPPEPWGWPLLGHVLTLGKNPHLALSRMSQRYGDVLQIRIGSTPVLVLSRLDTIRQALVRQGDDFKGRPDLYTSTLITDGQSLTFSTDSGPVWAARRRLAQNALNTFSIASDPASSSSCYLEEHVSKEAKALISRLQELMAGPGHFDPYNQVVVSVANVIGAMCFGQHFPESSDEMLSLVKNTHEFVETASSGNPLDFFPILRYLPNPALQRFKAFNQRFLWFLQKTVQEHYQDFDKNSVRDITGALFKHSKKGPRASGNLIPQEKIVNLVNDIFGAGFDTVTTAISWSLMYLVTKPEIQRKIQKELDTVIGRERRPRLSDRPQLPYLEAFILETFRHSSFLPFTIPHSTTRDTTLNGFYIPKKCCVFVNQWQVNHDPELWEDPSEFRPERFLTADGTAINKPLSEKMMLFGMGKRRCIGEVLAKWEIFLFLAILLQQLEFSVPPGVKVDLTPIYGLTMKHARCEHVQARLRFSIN
# CYP3A4 = CYP3A4 (Homo sapiens, UniProt P08684); experiment: in vitro; conditions: microsomes, pH 7.4
# [3] = test system: phospho-MEK in A549 cells; experiment: Cell-based pMEK (pMEK:tMEK, CRAF bypass) in A549 cells; conditions: 2 hr
# Outline: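 Cells (A549 or A375) exposed 2 h to compounds at varying concentrations in duplicate, then lysed; lysates set to 1.5 mg/mL for pMEK by quantitative Western (Jess). Phospho-MEK/total MEK ratio normalized to DMSO control.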
# [4] = Mouse liver microsome stability (t1/2, Clint); conditions: mouse, liver microsomes, pH 7.4
# [5] = Human liver microsome stability (t1/2, Clint); conditions: human, liver microsomes, pH 7.4
# [6] = read-out: CLint (L/hr/kg) (converted)
# CYP3A4, sequence (P08684 whole entry): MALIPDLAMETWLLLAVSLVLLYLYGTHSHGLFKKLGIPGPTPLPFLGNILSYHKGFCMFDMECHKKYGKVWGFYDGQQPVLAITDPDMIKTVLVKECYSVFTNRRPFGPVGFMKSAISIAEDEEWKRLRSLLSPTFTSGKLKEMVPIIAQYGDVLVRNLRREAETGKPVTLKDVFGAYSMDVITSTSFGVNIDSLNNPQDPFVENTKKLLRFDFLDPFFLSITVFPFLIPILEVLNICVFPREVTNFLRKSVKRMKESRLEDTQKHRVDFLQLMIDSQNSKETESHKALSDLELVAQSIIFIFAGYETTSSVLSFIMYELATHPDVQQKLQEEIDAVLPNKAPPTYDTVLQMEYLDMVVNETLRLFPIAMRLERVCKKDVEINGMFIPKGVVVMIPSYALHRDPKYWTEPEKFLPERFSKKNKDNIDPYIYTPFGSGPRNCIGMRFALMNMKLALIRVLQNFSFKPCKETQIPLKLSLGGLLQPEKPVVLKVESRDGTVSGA
# CYP2C19, sequence (P33261 whole entry): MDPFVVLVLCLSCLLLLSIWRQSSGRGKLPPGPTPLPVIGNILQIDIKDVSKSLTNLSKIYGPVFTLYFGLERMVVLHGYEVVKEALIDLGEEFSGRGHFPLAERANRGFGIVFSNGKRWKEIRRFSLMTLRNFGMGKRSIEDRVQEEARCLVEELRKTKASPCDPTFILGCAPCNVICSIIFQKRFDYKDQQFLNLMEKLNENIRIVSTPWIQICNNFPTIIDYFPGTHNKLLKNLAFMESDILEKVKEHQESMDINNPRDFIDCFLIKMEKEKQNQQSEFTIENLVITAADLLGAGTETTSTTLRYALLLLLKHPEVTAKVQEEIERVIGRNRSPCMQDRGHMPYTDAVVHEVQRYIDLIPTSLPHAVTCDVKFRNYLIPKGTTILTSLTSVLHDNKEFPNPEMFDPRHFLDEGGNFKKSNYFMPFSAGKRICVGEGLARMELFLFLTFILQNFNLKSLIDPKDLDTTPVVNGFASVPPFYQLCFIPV
# CYP2D6, sequence (P10635 whole entry): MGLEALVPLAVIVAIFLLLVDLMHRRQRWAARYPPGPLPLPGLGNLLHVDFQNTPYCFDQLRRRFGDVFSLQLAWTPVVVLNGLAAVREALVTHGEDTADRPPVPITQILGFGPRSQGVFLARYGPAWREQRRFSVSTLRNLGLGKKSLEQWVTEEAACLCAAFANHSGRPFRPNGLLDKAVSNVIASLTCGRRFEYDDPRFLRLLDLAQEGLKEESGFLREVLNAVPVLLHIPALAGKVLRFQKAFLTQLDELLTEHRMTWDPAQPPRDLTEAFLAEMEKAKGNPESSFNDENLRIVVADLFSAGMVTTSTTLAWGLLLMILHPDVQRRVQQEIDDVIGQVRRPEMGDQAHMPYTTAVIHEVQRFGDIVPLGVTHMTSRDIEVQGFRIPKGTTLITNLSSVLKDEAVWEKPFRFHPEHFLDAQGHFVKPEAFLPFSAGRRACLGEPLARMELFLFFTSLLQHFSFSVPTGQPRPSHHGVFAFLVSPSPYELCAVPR
microsomal CLint at 1 μM [5] [µL/min/mg],Structure (SMILES),"Papp at 4 h, 50 μM (PAMPA (pH 7.4); pH = 7.4 (Table 14)) [×10⁻⁶ cm/s]",half-life at 2 μM [1] [h],"CLint scaled at 2 μM [1, 6] [L/h/kg]",CLint scaled at 2 μM ([1]; read-out: CLint (mL/min/kg)) [L/h/kg],"CLint scaled at 2 μM [2, 6] [L/h/kg]",CLint scaled at 2 μM ([2]; read-out: CLint (mL/min/kg)) [L/h/kg],half-life at 2 μM [2] [h],"inhibition at 30 min, 10 µM (CYP2B6) [%]","inhibition at 30 min, 10 µM (CYP2C19) [%]","inhibition at 30 min, 10 µM (CYP2D6) [%]","inhibition at 30 min, 10 µM (CYP1A2) [%]","inhibition at 30 min, 10 µM (CYP3A4) [%]",CRAF A549 pMEK:tMEK [100 nM; 2 hr] [3],"Papp at 4 h, 50 μM (PAMPA (pH 7.4); pH = 7.4) [×10⁻⁶ cm/s]",half-life at 1 μM [4] [h],microsomal CLint at 1 μM [4] [µL/min/mg],half-life at 1 μM [5] [h]
,"CCN(C)Cc1c(Cc2cccc(NS(=O)(=O)NC)c2Cl)c(=O)oc2cc(OC(=O)N(C)C)ccc12 [Compound 245, 3-(2-chloro-3-((N-methylsulfamoyl)amino)benzyl)-4-((ethyl(methyl)amino)methyl)-2-oxo-2H-chromen-7-yl dimethylcarbamate]",53,0.407,13.8,13.8,5,5,0.748,6,29,13.7,-0.3,,,,,,
,"CNS(=O)(=O)Nc1cccc(Cc2c(CN3CCNCC3)c3ccc(OC(=O)N(C)C)cc3oc2=O)c1Cl [Compound 246, 3-(2-chloro-3-((N-methylsulfamoyl)amino)benzyl)-2-oxo-4-(piperazin-1-ylmethyl)-2H-chromen-7-yl dimethylcarbamate hydrochloride]",2,6.75,0.832,0.834,1.25,1.25,3,29.7,22,5.1,-3.7,16.2,,,,,
,"CNS(=O)(=O)Nc1cccc(Cc2c(CN3CCNCC3)c3cc(Cl)c(OC(=O)N(C)C)cc3oc2=O)c1Cl [Compound 256, 6-chloro-3-(2-chloro-3-((N-methylsulfamoyl)amino)benzyl)-2-oxo-4-(piperazin-1-ylmethyl)-2H-chromen-7-yl dimethylcarbamate hydrochloride]",4,2.25,2.5,2.5,2.12,2.12,1.75,1.9,40.8,7.1,6.2,61.8,,,,,
,"CCS(=O)(=O)Nc1cccc(Cc2c(CN3CCNCC3)c3cc(Cl)c(OC(=O)N(C)C)cc3oc2=O)c1Cl [Compound 257, 6-chloro-3-(2-chloro-3-(ethylsulfonamido)benzyl)-2-oxo-4-(piperazin-1-ylmethyl)-2H-chromen-7-yl dimethylcarbamate hydrochloride]",8,2.98,1.88,1.88,2.13,2.13,1.75,13.7,47.5,10.1,9.9,67.4,,,,,
,"CNS(=O)(=O)Nc1cccc(Cc2c(CN(C)C)c3ccc(OC(=O)N(C)C)cc3oc2=O)c1Cl [Compound 274, 3-(2-chloro-3-((N-methylsulfamoyl)amino)benzyl)-4-((dimethylamino)methyl)-2-oxo-2H-chromen-7-yl dimethylcarbamate]",,0.985,5.7,5.69,2.84,2.84,1.32,-0.6,15.1,2.5,-3.4,,,,,,
,"Cn1cnc2c(F)c(Nc3ccc(Br)cc3Cl)c(C(=O)NOCCO)cc21 [Reference-1, Selumetinib]",,,,,,,,,,,,,2.09,29,0.3,78,> 1.5
< 15,"CNS(=O)(=O)Nc1nccc(Cc2c(C)c3ccc(Oc4ncccn4)cc3oc2=O)c1F [Reference-2, reference compound]",,,,,,,,,,,,,2.09,29,0.3,78,
